Eleven compounds from PubChem BioAssay (NCI) can be followed below.

“And” between values parts separate entries of the source, which are not always exact repeats. Identical values can stand only once.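 Test compounds were applied to cells in 96-well plates for 48 hours at 5 doses. Here, GI50 denotes the concentration required for 50% inhibition of growth. The concentration for full growth arrest is given as TGI.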

Test systems include BT-549 breast; DU-145 prostate; MCF7 breast; MDA-MB-435; PC-3 prostate.
Test in all cases: NCI anticancer screen, dose series, 48 h

In the case of `CC(C)C[C@@H]1NC(=O)[C@@H]2CCCN2C(=O)[C@@H]2CCCN2C(=O)[C@H](CC(C)C)NC(=O)[C@H](CO)NC(=O)[C@H](CCCCN)NC(=O)[C@H]([C@H](C)O)NC(=O)[C@@H]2CCCC[C@@H](NC1=O)C(=O)N[C@@H](Cc1ccccc1)C(=O)N1CCC[C@H]1C(=O)N[C@@H](CC(=O)O)C(=O)NCC(=O)N[C@@H](CCCN=C(N)N)C(=O)N2`, the GI50 with BT-549 breast, in the assay with DU-145 prostate, with MCF7 breast, in the assay on MDA-MB-435 and in the assay with PC-3 prostate was > 50 µM throughout. For the same compound, the TGI in the assay with BT-549 breast, in the assay on DU-145 prostate, in the assay with MCF7 breast, in the assay with MDA-MB-435 and in the assay with PC-3 prostate was > 50 µM in each case.
For the compound `COC(=O)c1cc2oc(/C=C3\SC(=S)N(NC(C)=O)C3=O)cc2n1Cc1ccccc1`, the GI50 in the assay with BT-549 breast was 3.34 µM; in the assay on DU-145 prostate, 1.7 µM; in the assay with MCF7 breast it was 2.53 µM; in the assay with MDA-MB-435, 1.1 µM; with PC-3 prostate, 1.61 µM. Moreover, the TGI in the assay on BT-549 breast is 28.7 µM; in the assay on DU-145 prostate, 9.85 µM; in the assay on MCF7 breast, > 50 µM; with MDA-MB-435 it was 4.02 µM; with PC-3 prostate it was 9.82 µM.
As for `O=C(CCCCCCC(=O)Nc1ccc2c(c1)/C(=C/c1ccc[nH]1)C(=O)N2)NO`, the GI50 in the assay with BT-549 breast was 1.87 µM; in the assay on DU-145 prostate it was 0.969 µM; in the assay on MCF7 breast, 0.437 µM; in the assay on MDA-MB-435, 0.332 µM; in the assay with PC-3 prostate it was 0.851 µM. The TGI was 22 µM with BT-549 breast; 41.6 µM with DU-145 prostate; > 69.6 µM in the assay on MCF7 breast; 4.57 µM in the assay on MDA-MB-435; > 100 µM in the assay with PC-3 prostate.
In the case of `CSC1C(=O)c2ccccc2/C(=N/Nc2nc3ccccc3s2)C1C` (stereo not given), the GI50 in the assay with BT-549 breast is 8.52 µM; with DU-145 prostate, 9.59 µM; in the assay with MCF7 breast it was 5.52 µM; in the assay with MDA-MB-435, 9.38 µM; with PC-3 prostate, 9.28 µM. The TGI was determined as 19.6 µM in the assay with BT-549 breast; 18.3 µM in the assay on DU-145 prostate; 34.7 µM in the assay on MCF7 breast; 19.8 µM in the assay on MDA-MB-435; 27.2 µM with PC-3 prostate.
`Cc1ccc(S(=O)(=O)Nc2nc3ccccc3nc2Nc2ccc3nsnc3c2)cc1`: the GI50 in the assay on BT-549 breast is 4.25 µM and 3.42 µM; with DU-145 prostate, 5.04 µM and 4.45 µM; with MCF7 breast, 6.55 µM and 4.6 µM; in the assay on MDA-MB-435, 4.09 µM and 3.15 µM; in the assay with PC-3 prostate, 3.22 µM and 2.91 µM. Also, the TGI is 26.3 µM and > 29.6 µM in the assay on BT-549 breast; > 100 µM with DU-145 prostate; > 100 µM in the assay with MCF7 breast; > 100 µM with MDA-MB-435; > 100 µM with PC-3 prostate.
Turning to `C[C@@H]1C[C@@]2(O[C@@H]2C)C(=O)O[C@@H]2CCN3CC=C(COC(=O)[C@]1(C)O)[C@H]23`, the TGI in the assay on BT-549 breast, in the assay on DU-145 prostate, in the assay on MCF7 breast, with MDA-MB-435 and in the assay on PC-3 prostate was > 100 µM in each case.
For `COC(=O)[C@@]1(O)C[C@H]2O[C@]1(C)n1c3ccccc3c3c4c(c5c6ccccc6n2c5c31)C(=O)NC4`, the GI50 in the assay with BT-549 breast is 0.295 µM; with DU-145 prostate it was 0.161 µM; in the assay with MCF7 breast it was 0.194 µM; in the assay with MDA-MB-435, 0.0745 µM; in the assay with PC-3 prostate, 0.251 µM. Also, the TGI is 1.91 µM with BT-549 breast; 5.9 µM in the assay with DU-145 prostate; 4.34 µM in the assay with MCF7 breast; 1.6 µM with MDA-MB-435; 2.95 µM with PC-3 prostate.
For `O=C(NCP(=O)(O)O)c1cccnc1`, the TGI in the assay with BT-549 breast, in the assay with DU-145 prostate, in the assay on MCF7 breast, in the assay on MDA-MB-435 and in the assay with PC-3 prostate was > 100 µM throughout.
On to `COc1cc(-c2oc3c(OC)c(O)c(OC)c(O)c3c(=O)c2OC)ccc1O`, for which the TGI in the assay on BT-549 breast was > 100 µM; in the assay with DU-145 prostate, > 100 µM; in the assay with MCF7 breast it was > 100 µM; in the assay on MDA-MB-435, 49.1 µM; in the assay on PC-3 prostate it was > 100 µM.
As to `N=C(N)c1ccc(-c2ccc(-c3cccs3)s2)nc1`, the GI50 in the assay with BT-549 breast is 4.79 µM; in the assay with DU-145 prostate, 1.8 µM; in the assay with MCF7 breast, 1.32 µM; with MDA-MB-435, 1.74 µM; with PC-3 prostate, 1.88 µM. The TGI was determined as 16.3 µM in the assay with BT-549 breast; 4.04 µM in the assay on DU-145 prostate; 3.3 µM in the assay with MCF7 breast; 3.42 µM in the assay on MDA-MB-435; 6.11 µM in the assay with PC-3 prostate.
`C=CC(=O)Nc1cccc(C)c1Nc1ncc2cc(-c3c(Cl)c(OC)cc(OC)c3Cl)ccc2n1`: the GI50 in the assay with BT-549 breast was 1.64 µM; with DU-145 prostate it was 3.63 µM; in the assay with MCF7 breast, 1.97 µM; in the assay with MDA-MB-435, 4.14 µM; in the assay on PC-3 prostate it was 2.09 µM. Also, the TGI in the assay with BT-549 breast was 9.34 µM; in the assay on DU-145 prostate, > 100 µM; with MCF7 breast, > 100 µM; in the assay with MDA-MB-435, 17.4 µM; with PC-3 prostate it was 23.3 µM.
